The nature of data set [1]: Activity of image coupler in single layer film (maximum slope relative to control coupler C-1). To be noted: developer pH=10, ratio to maximum slope of C-1 control, higher ratio implies higher activity. On the procedure:
(§1) The emulsion was an undyed, but chemically sensitized, 0.7 micron polymorphic silver iodobromide emulsion containing 3.5% mole of iodide. The coating structure is shown below.
(§2) Monolayer coatings were panchromatically exposed and processed in developer solutions of different pH values. A stop bath was used to eliminate any complications due to the continuing coupling reaction. The processing procedure and solution formulations are listed below.
Further single layer film elements were prepared as above, given a stepped exposure and processed (developer pH=10). The activity of an image coupler was determined by determining the maximum slope between any two adjacent steps for the coupler and dividing by the maximum slope of a corresponding control sample containing coupler C-1 processed at the same time as the sample. A higher ratio implies higher activity. The logP of the R3 fragment (a quantity also referred to as π) was calculated as described in the Detailed Description of the invention.

Data set [2] can be described thus: pH sensitivity of gamma in single layer film, normalized to C-1. Conditions: developer pH 9.75, 10, 10.37, normalized by division with pH sensitivity of C-1.
Description: To measure the pH sensitivity of a single layer film, the following was done. A stepped exposure was applied to three identical strips of the film. One strip was processed with the normal C-41 process at pH of about 10. A second strip was processed in the same developer in which the pH was decreased to 9.75, while the third strip was processed in the same developer in which the pH was increased to 10.37.
as §1, §2
The D-logE Status M gamma was measured for each film and the three gammas were used as input to a least-squares regression in which gamma was the response, and the factors were pH and pH-squared in a linear model with an intercept. Before regression, the three pH values were shifted (centered) to have a mean of zero (-0.31, 0, 0.31). The coefficient of the main effect, pH, in the regression is the pH sensitivity of gamma, which was normalized by division with the pH sensitivity of the comparison coupler C-1 (Table 2) that was processed at the same time as each test coupler.

Data set [3] is described as follows: Green pH sensitivity of gamma in multilayer film (format ML-A), normalized to C-1. To be noted: for pH Sensitivity: multilayer film ML-A, developer pH 9.95 to 10.15, relative normalized pH sensitivity of green gamma vs C-1. The text has this:
The formulas for the multilayer organic components are provided following the examples. The multilayer format used was an ISO 200 speed format (designated ML-A).
Table 4 indicates the experiment number, whether it is a comparative or inventive example, the magenta coupler used in the designated green sensitive layers and the laydown in each of those layers.
To measure the green pH sensitivity of a multilayer film, the following was done. A neutral stepped exposure was applied to nine 35-mm strips of the film. One strip was processed with the normal C-41 process. The other eight strips were processed in a 2**3 factorial design in which the pH of the developer solution was varied from 9.95 to 10.15, the bromide was varied from 0.8 g/L to 1.8 g/L, and the concentration of the developer was varied from 3.5 g/L to 5.5 g/L. The green Status M photographic D-logE gammas were measured for each film at mid-exposure, and each gamma was normalized by dividing by the average gamma for all nine strips.
The nine normalized gammas that were obtained at the nine combinations of pH, Br, and developer concentration were used as input to a least-squares regression in which normalized gamma was the response, and the factors were pH, Br, and developer concentration in a linear model with an intercept. The coefficient of pH is the sensitivity of normalized gamma to pH, and this was further normalized (divided) by the sensitivity of the comparison coupler C-1 (Table 2) that was processed at the same time as each test coupler.

For the compound `CCCCCCCCCCCCC(c1n[nH]c2c(Cl)c(C)nn12)N(CCCCCCCC)C(=O)CCC(=O)O` (centres unmarked) [Mag C-1], the Activity in data set [1] was 1.00. Moreover, the “pH Sensitivity” value in data set [2] and in data set [3] was 1.00 throughout.
In the case of `CCCCCCCCCCC(Oc1ccc(S(=O)(=O)c2ccc(O)cc2)cc1)C(=O)Nc1ccc(CCCc2n[nH]c3c(Cl)c(C)nn23)cc1` (centres unmarked) [Mag C-2], the Activity in data set [1] amounted to 0.51. Also, the “pH Sensitivity” value in data set [2] stood at 1.39.
Consider `CCCCCCCCCCCCCCCC(=O)N(c1ccc(CC(=O)O)cc1)C(c1ccccc1)c1n[nH]c2c(Cl)c(C)nn12` (centres unmarked) [Mag C-4], for which the Activity in data set [1] worked out at 0.87. Also, the “pH Sensitivity” value in data set [2] is 1.32.
Taken in the same sequence, the figures for `CCCCCCCCCCCCCCCC(=O)N(Cc1ccc(C(=O)O)cc1)C(C)c1n[nH]c2c(Cl)c(C)nn12` (centres unmarked) [Mag C-5] were 1.34 and 1.32.
As for `CCCCCCCCCCCCCCCCCC(=O)N(CCCCCC(=O)O)C(C)c1n[nH]c2c(Cl)c(C)nn12` (centres unmarked) [Mag C-7], the Activity in data set [1] was found to be 1.04. Moreover, in data set [2], the “pH Sensitivity” value is 1.32.
On the same counts, the results for `CCCCCCCCCCCCCCCC(=O)N(c1cccc(CC(=O)O)c1)C(c1ccccc1)c1n[nH]c2c(Cl)c(C)nn12` (centres unmarked) [Mag C-8] are 1.26 and 1.43.
Turning to `CCCCCCCCCCCCCCCC(=O)N(c1cccc(C(=O)O)c1)C(C)c1n[nH]c2c(Cl)c(C)nn12` (centres unmarked) [Mag C-10], in data set [1], the Activity was 1.52. Moreover, the “pH Sensitivity” value in data set [2] is reported as 0.51; in data set [3] it was 0.66.
On the same counts, the results for `CCCCCCCCCCCCCCCCCC(=O)N(c1cccc(C(=O)O)c1)C(C)c1n[nH]c2c(Cl)c(C)nn12` (centres unmarked) [Mag C-11] are 1.33, 1.05 and 0.63.
Turning to `CCCCCCCCCCCCCCCCCCCC(=O)N(CCCC(=O)O)C(c1ccccc1)c1n[nH]c2c(Cl)c(C)nn12` (centres unmarked) [Mag C-12], the Activity in data set [1] came to 0.91. Also, the “pH Sensitivity” value in data set [2] turned out to be 0.75.
For `CCCCCCCCCCCCC(c1n[nH]c2c(Cl)c(C)nn12)N(C(=O)CCCCC)c1cccc(C(=O)O)c1` (centres unmarked) [Mag C-13], the Activity in data set [1] was determined as 1.33.
As for `CCCCCCCCCCCCCCCCCCCCCC(=O)N(c1cccc(C(=O)OC)c1)C(C)c1n[nH]c2c(Cl)c(C)nn12` (centres unmarked) [Mag C-14], the Activity is recorded as 0.43 in data set [1] and “substantial loss of activity” in data set [1] (listed as SL-11).
Turning to `CCCCCC(=O)N(c1cccc(C(=O)O)c1)C(C)c1n[nH]c2c(Cl)c(C)nn12` (centres unmarked) [Mag C-15], the “pH Sensitivity” value in data set [3] was 0.41. Besides, in data set [3] (multilayer, solubility and washout of its magenta dye), the “magenta dye formed from coupler remaining in the film after processing” value was “very little”.
As for `CCCCCCCCCCCCCCCCCCCCCC(=O)N(c1cccc(C(=O)O)c1)C(C)c1n[nH]c2c(Cl)c(C)nn12` (centres unmarked) [Mag-1], in data set [1], the Activity was determined as 1.50. The “pH Sensitivity” value amounted to 0.83 in data set [2] and 0.52 in data set [3].
`CCCCCCCCCCCCC(Oc1ccc(C(C)(C)CC(C)(C)C)cc1)C(=O)N(c1cccc(C(=O)O)c1)C(C)c1n[nH]c2c(Cl)c(C)nn12` (centres unmarked) [Mag-6]: the Activity in data set [1] is recorded as 1.15. Moreover, the “pH Sensitivity” value in data set [2] is reported as 0.75.
Turning to `CCCCCCCCCCCCCCCc1cccc(OC(CCCC)C(=O)N(c2cccc(C(=O)O)c2)C(C)c2n[nH]c3c(Cl)c(C)nn23)c1` (centres unmarked) [Mag-7], the Activity in data set [1] is 1.22. In addition, the “pH Sensitivity” value in data set [2] is listed as 0.83; in data set [3], 0.59.
For `CCCCCCCCCCCCCCCCCCCCCC(=O)N(c1cccc(C(=O)O)c1)C(CC)c1n[nH]c2c(Cl)c(C)nn12` (centres unmarked) [Mag-11], the “pH Sensitivity” value in data set [3] is listed as 0.56.

The values above are taken from US5681691A, “Photographic element containing an improved pyrazolotriazole coupler” (Eastman Kodak Company, priority 1996, dated 1997).
